Experimental data taken from US20250115598A1 (Anaxis Pharma Pty Ltd, priority 2021, published 2025).

Legend:
human MLKL (full length) = human MLKL (full length) (Homo sapiens (Human), UniProt Q8NB16); assay: KINOMEscan binding assay, human MLKL (full length); conditions: KINOMEscan, Table 21; read-out: Human MLKL (full-length) (KD)
Method: Binding affinity of the test compounds for human MLKL (full length), mouse MLKL (full length), human RIPK1 and human RIPK3 was determined using the KINOMEscan™ technology developed by DiscoverX (USA; http://www.discoverx.com). The assay was conducted according to manufacturer instructions.
Kinase assays. For most assays, kinase-tagged T7 phage strains were grown in parallel in 24-well blocks in an E. coli host derived from the BL21 strain. E. coli were grown to log-phase and infected with T7 phage from a frozen stock (multiplicity of infection=0.4) and incubated with shaking at 32° C. until lysis (90-150 minutes). The lysates were centrifuged (6,000×g) and filtered (0.2 μm) to remove cell debris. The remaining kinases were produced in HEK-293 cells and subsequently tagged with DNA for qPCR detection. […] The liganded beads were blocked with excess biotin and washed with blocking buffer (SeaBlock (Pierce), 1% BSA, 0.05% Tween 20, 1 mM DTT) to remove unbound ligand and to reduce non-specific phage binding. […] All reactions were performed in polypropylene 384-well plates in a final volume of 20 μL. […] The kinase concentration in the eluates was measured by qPCR.
An 11-point 3-fold serial dilution of each test compound was prepared in 100% DMSO at 100× final test concentration and subsequently diluted to 1× in the assay (final DMSO concentration=1%). Most Kos were determined using a compound top concentration=30,000 nM.
KD for each test compound was calculated with a standard dose-response curve using the Hill equation (equation (1)): […]
The Hill Slope was set to −1.
Curves were fitted using a non-linear least square fit with the Levenberg-Marquardt algorithm.

human RIPK1 = human RIPK1 (Homo sapiens (Human), UniProt Q13546); assay: KINOMEscan binding assay, human RIPK1; conditions: Table 21
Sequence of human RIPK1 (Q13546 whole entry): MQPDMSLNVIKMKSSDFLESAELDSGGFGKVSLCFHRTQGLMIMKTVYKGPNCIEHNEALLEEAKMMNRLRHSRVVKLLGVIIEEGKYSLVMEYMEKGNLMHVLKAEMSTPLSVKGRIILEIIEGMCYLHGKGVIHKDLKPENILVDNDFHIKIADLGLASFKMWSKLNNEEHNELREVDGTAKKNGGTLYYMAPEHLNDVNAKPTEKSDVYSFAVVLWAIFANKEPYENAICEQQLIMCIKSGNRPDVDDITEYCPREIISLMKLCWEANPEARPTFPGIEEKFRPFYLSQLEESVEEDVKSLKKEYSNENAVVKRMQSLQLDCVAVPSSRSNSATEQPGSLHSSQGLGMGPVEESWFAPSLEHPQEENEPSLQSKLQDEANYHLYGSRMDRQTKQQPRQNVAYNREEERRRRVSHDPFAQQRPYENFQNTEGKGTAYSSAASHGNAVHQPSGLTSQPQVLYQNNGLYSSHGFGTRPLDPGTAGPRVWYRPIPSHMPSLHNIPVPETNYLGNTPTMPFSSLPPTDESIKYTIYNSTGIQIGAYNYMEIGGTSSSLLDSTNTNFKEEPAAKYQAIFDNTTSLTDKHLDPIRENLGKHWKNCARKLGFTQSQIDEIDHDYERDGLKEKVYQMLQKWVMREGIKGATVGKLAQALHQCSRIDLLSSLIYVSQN
Method in brief: (§1)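 Assay principle: test compound competes with immobilized bead ligand for kinase; kinase retained, then eluted, is counted by qPCR. Conditions were 1% DMSO final with 11 compound concentrations in 3-fold steps, 30,000 nM top for most. The Hill equation with slope −1 gave Kd.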

human RIPK3 = human RIPK3 (Homo sapiens (Human), UniProt Q9Y572); assay: KINOMEscan binding assay, human RIPK3; conditions: Table 21
Sequence of human RIPK3 (Q9Y572 whole entry): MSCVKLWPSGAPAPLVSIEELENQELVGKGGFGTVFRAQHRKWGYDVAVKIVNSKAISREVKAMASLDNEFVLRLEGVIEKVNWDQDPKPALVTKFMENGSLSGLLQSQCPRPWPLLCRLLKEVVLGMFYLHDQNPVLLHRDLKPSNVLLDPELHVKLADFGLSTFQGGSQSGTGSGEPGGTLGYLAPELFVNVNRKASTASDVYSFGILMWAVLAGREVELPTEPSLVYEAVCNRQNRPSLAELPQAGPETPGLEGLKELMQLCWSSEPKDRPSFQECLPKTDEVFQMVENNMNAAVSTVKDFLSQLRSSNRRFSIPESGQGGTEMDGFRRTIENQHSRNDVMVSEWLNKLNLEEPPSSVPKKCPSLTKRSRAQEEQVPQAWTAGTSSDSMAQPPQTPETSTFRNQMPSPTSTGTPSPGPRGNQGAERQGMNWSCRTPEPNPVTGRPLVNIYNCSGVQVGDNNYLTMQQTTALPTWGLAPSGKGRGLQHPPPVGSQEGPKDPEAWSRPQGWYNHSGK
Method in brief: as §1

Sequence of human MLKL (full length) (Q8NB16 whole entry): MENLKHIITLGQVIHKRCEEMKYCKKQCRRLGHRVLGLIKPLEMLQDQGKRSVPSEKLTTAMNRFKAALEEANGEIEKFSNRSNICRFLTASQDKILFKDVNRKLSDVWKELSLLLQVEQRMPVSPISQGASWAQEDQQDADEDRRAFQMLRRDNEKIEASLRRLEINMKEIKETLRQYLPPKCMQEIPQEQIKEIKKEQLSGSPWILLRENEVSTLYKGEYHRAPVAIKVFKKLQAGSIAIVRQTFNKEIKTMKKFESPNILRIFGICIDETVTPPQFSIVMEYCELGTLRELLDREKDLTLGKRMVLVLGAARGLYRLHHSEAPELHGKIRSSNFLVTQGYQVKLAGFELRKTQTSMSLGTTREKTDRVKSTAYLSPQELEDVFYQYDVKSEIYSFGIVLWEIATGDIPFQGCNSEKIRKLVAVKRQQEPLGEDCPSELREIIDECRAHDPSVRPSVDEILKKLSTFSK

Kd (human MLKL (full length)) [µM]	Kd (human RIPK1) [µM]	Kd (human RIPK3) [µM]	Compound
< 0.001	> 10	> 10	C[C@H](Oc1cc(-c2coc3c(-c4cnn(CCO)c4)cnc(N)c23)ccc1NS(=O)(=O)C(F)F)c1ccc(F)cc1 [Compound 9, (S)-N-(4-(4-amino-7-(1-(2-hydroxyethyl)-1H-pyrazol-4-yl)furo[3,2-c]pyridin-3-yl)-2-(1-(4-fluoro-phenyl)eth-oxy)phenyl)-1,1-difluoromethane-sulfonamide]
< 0.001	> 10	> 10	Cn1cc(-c2cnc(N)c3c(-c4ccc(NS(=O)(=O)C(F)F)c(OCc5ccc(F)cc5)c4)nn(C)c23)cn1 [Compound 16, N-(4-(4-amino-1-methyl-7-(1-methyl-1H-pyrazol-4-yl)-1H-pyrazolo[4,3-c]pyridin-3-yl)-2-((4-fluoro-benzyl)oxy)phenyl)-1,1-difluoromethane-sulfonamide]
< 0.001	> 10	> 10	C[C@H](Oc1cc(-c2nn(C)c3ccnc(N)c23)ccc1NS(=O)(=O)C(F)F)c1ccc(F)cc1 [Compound 17, N-(4-{4-amino-1-methyl-1H-pyrazolo[4,3-c]pyridin-3-yl}-2-[(1S)-1-(4-fluorophenyl)ethoxy]phenyl)-1,1-difluoromethanesulfonamide]
< 0.001	> 10	> 10	C[C@H](Oc1cc(-c2nn(C)c3c(-c4ccncc4)cnc(N)c23)ccc1NS(=O)(=O)C(F)F)c1ccc(F)cc1 [Compound 18, (S)-N-(4-(4-amino-1-methyl-7-(pyridin-4-yl)-1H-pyrazolo[4,3-c]pyridin-3-yl)-2-(1-(4-fluorophenyl)ethoxy)phenyl)-1,1-difluoromethanesulfonamide]
< 0.001	> 10	> 10	C[C@H](Oc1cc(-c2nn(C)c3c(C4=CCN(C)CC4)cnc(N)c23)ccc1NS(=O)(=O)C(F)F)c1ccc(F)cc1 [Compound 21, (S)-N-(4-(4-amino-1-methyl-7-(1-methyl-1,2,3,6-tetrahydropyridin-4-yl)-1H-pyrazolo[4,3-c]pyridin-3-yl)-2-(1-(4-fluorophenyl)ethoxy)phenyl)-1,1-difluoromethanesulfonamide]
< 0.001	> 10	> 10	Cc1cc(-c2cnc(N)c3c(-c4ccc(NS(=O)(=O)C(F)F)c(O[C@@H](C)c5ccc(F)cc5)c4)nn(C)c23)ccn1 [Compound 24, (S)-N-(4-(4-amino-1-methyl-7-(2-methylpyridin-4-yl)-1H-pyrazolo[4,3-c]pyridin-3-yl)-2-(1-(4-fluorophenyl)ethoxy)phenyl)-1,1-difluoromethanesulfonamide]
< 0.001	> 10	> 10	C[C@H](Oc1cc(-c2nn(C)c3c(-c4cccnc4)cnc(N)c23)ccc1NS(=O)(=O)C(F)F)c1ccc(F)cc1 [Compound 25, (S)-N-(4-(4-amino-1-methyl-7-(pyridin-3-yl)-1H-pyrazolo[4,3-c]pyridin-3-yl)-2-(1-(4-fluorophenyl)ethoxy)phenyl)-1,1-difluoromethanesulfonamide]
< 0.001	> 10	> 10	Cc1ccc(-c2cnc(N)c3c(-c4ccc(NS(=O)(=O)C(F)F)c(O[C@@H](C)c5ccc(F)cc5)c4)nn(C)c23)cn1 [Compound 26, (S)-N-(4-(4-amino-1-methyl-7-(6-methylpyridin-3-yl)-1H-pyrazolo[4,3-c]pyridin-3-yl)-2-(1-(4-fluorophenyl)ethoxy)phenyl)-1,1-difluoromethanesulfonamide]
< 0.001	> 10	> 10	COc1ccc(-c2cnc(N)c3c(-c4ccc(NS(=O)(=O)C(F)F)c(O[C@@H](C)c5ccc(F)cc5)c4)nn(C)c23)cn1 [Compound 28, (S)-N-(4-(4-amino-7-(6-methoxypyridin-3-yl)-1-methyl-1H-pyrazolo[4,3-c]pyridin-3-yl)-2-(1-(4-fluorophenyl)ethoxy)phenyl)-1,1-difluoromethanesulfonamide]
< 0.001	> 10	> 10	COCCn1cc(-c2cnc(N)c3c(-c4ccc(NS(=O)(=O)C(F)F)c(O[C@@H](C)c5ccc(F)cc5)c4)nn(C)c23)cn1 [Compound 29, (S)-N-(4-(4-amino-7-(1-(2-methoxyethyl)-1H-pyrazol-4-yl)-1-methyl-1H-pyrazolo[4,3-c]pyridin-3-yl)-2-(1-(4-fluorophenyl)ethoxy)phenyl)-1,1-difluoromethanesulfonamide]
< 0.001	> 10	> 10	CC(C)n1cc(-c2cnc(N)c3c(-c4ccc(NS(=O)(=O)C(F)F)c(O[C@@H](C)c5ccc(F)cc5)c4)nn(C)c23)cn1 [Compound 31, (S)-N-(4-(4-amino-7-(1-isopropyl-1H-pyrazol-4-yl)-1-methyl-1H-pyrazolo[4,3-c]pyridin-3-yl)-2-(1-(4-fluorophenyl)ethoxy)phenyl)-1,1-difluoromethanesulfonamide]
< 0.001	> 10	> 10	C[C@H](Oc1cc(-c2cnn3c(-c4cnn(C)c4)cnc(N)c23)ccc1NS(=O)(=O)C(F)F)c1ccc(F)cc1 [Compound 35, (S)-N-(4-(4-amino-7-(1-methyl-1H-pyrazol-4-yl)pyrazolo[1,5-a]pyrazin-3-yl)-2-(1-(4-fluorophenyl)ethoxy)phenyl)-1,1-difluoromethane-sulfonamide]
< 0.001	> 10	> 10	C[C@H](Oc1cc(-c2cnn3c(-c4cnn(C5CCOCC5)c4)cnc(N)c23)ccc1NS(=O)(=O)C(F)F)c1ccc(F)cc1 [Compound 36, (S)-N-(4-(4-amino-7-(1-(tetrahydro-2H-pyran-4-yl)-1H-pyrazol-4-yl)pyrazolo[1,5-a]pyrazin-3-yl)-2-(1-(4-fluorophenyl)ethoxy)phenyl)-1,1-difluoromethane-sulfonamide]
< 0.001	> 10	> 10	C[C@H](Oc1cc(-c2cnn3c(-c4cnn(CCO)c4)cnc(N)c23)ccc1NS(=O)(=O)C(F)F)c1ccc(F)cc1 [Compound 37, (S)-N-(4-(4-amino-7-(1-(2-hydroxyethyl)-1H-pyrazol-4-yl)pyrazolo[1,5-a]pyrazin-3-yl)-2-(1-(4-fluorophenyl)ethoxy)phenyl)-1,1-difluoromethane-sulfonamide]
< 0.001	> 10	> 10	C[C@H](Oc1cc(-c2nn(C)c3c(-c4cnn(C5COC5)c4)cnc(N)c23)ccc1NS(=O)(=O)C(F)F)c1ccc(F)cc1 [Compound 38, (S)-N-(4-(4-amino-1-methyl-7-(1-(oxetan-3-yl)-1H-pyrazol-4-yl)-1H-pyrazolo[4,3-c]pyridin-3-yl)-2-(1-(4-fluorophenyl)ethoxy)phenyl)-1,1-difluoromethanesulfonamide]
< 0.001	> 10	> 10	C[C@H](Oc1cc(-c2cnn3c(-c4ccncc4)cnc(N)c23)ccc1NS(=O)(=O)C(F)F)c1ccc(F)cc1 [Compound 39, (S)-N-(4-(4-amino-7-(pyridin-4-yl)pyrazolo[1,5-a]pyrazin-3-yl)-2-(1-(4-fluoro-phenyl)ethoxy)phenyl)-1,1-difluoromethane-sulfonamide]
< 0.001	> 10	> 10	C[C@H](Oc1cc(-c2nn(C)c3c(-c4ccncn4)cnc(N)c23)ccc1NS(=O)(=O)C(F)F)c1ccc(F)cc1 [Compound 40, (S)—N-(4-(4-amino-1-methyl-7-(pyrimidin-4-yl)-1H-pyrazolo[4,3-c]pyridin-3-yl)-2-(1-(4-fluorophenyl)ethoxy)phenyl)-1,1-difluoromethanesulfonamide]
< 0.001	> 10	> 10	C[C@H](Oc1cc(-c2nn(C)c3c(-c4cnn(C5CCOC5)c4)cnc(N)c23)ccc1NS(=O)(=O)C(F)F)c1ccc(F)cc1 (stereo partly drawn) [Compound 41, N-(4-(4-amino-1-methyl-7-(1-(tetrahydrofuran-3-yl)-1H-pyrazol-4-yl)-1H-pyrazolo[4,3-c]pyridin-3-yl)-2-((S)-1-(4-fluorophenyl)ethoxy)phenyl)-1,1-difluoromethanesulfonamide]
< 0.001	> 10	> 10	CC(C)n1nc(-c2ccc(NS(=O)(=O)C(F)F)c(O[C@@H](C)c3ccc(F)cc3)c2)c2c(N)ncc(-c3ccncc3)c21 [Compound 50, (S)-N-(4-(4-amino-1-isopropyl-7-(pyridin-4-yl)-1H-pyrazolo[4,3-c]pyridin-3-yl)-2-(1-(4-fluorophenyl)ethoxy)phenyl)-1,1-difluoromethane-sulfonamide]
